# Earlier results in US20260258420A1, “COMPOSITIONS AND METHODS FOR THE TREATMENT OF HUMAN PAPILLOMAVIRUS-DRIVEN CANCERS” (priority 2023, published 2026).
# Conditions: human clinical trials; cited from earlier work
compound,measurement,value
"COc1cc(Nc2ncc3c(n2)-c2ccc(Cl)cc2C(c2c(F)cccc2OC)=NC3)ccc1C(=O)O [ALISERTIB, alisertib]",common toxicities,"anemia, thrombocytopenia, and neutropenia"
